The molecules below were run against T1, human TLR7 (Homo sapiens, UniProt Q9NYK1) (assay: HEK293-Blue-hTLR-7 cells assay (SEAP reporter, R848 stimulation)). Details: HEK293-Blue-hTLR7 cells, R848 ligand, 20 hrs incubation.
T1 sequence (Q9NYK1 27-1049): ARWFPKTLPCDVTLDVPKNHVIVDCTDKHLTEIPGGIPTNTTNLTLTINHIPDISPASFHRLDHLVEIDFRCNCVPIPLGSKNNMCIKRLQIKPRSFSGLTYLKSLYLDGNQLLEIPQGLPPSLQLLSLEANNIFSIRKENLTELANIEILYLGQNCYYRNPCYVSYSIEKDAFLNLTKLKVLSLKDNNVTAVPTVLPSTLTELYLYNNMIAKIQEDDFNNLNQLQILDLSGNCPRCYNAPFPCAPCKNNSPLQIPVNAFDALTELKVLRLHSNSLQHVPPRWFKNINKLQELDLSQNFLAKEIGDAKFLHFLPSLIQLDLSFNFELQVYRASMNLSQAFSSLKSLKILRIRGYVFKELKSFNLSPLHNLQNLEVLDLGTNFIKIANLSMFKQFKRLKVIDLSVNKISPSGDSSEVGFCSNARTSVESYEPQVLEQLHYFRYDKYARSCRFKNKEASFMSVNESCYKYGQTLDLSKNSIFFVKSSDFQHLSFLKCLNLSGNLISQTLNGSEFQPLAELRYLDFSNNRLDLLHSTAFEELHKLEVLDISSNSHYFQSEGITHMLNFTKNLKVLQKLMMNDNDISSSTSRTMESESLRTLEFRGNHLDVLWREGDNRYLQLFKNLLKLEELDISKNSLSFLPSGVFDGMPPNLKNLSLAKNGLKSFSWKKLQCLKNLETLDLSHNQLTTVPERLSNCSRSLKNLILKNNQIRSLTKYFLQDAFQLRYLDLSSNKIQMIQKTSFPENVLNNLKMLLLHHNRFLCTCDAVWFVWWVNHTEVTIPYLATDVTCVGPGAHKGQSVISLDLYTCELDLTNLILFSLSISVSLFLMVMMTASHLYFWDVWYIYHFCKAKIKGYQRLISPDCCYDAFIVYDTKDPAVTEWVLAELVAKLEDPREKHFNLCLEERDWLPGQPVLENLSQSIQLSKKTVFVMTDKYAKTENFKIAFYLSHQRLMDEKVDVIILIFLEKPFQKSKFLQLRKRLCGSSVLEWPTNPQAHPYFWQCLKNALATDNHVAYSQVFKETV
Assay type: cell-based
Description: A stable HEK293-Blue-hTLR-7 cell line was purchased from InvivoGen (Cat. #: hkb-htlr7, San Diego, Calif., USA). These cells were originally designed for studying the stimulation of human TLR7 by monitoring the activation of NF-κB. A SEAP (secreted embryonic alkaline phosphatase) reporter gene was placed under the control of the IFN-β minimal promoter fused to five NF-κB and AP-1-binding sites. The SEAP was induced by activating NF-κB and AP-1 via stimulating HEK-Blue hTLR7 cells with TLR7 ligands. Therefore the reporter expression was declined by TLR7 antagonist under the stimulation of a ligand, such as R848 (Resiquimod), for incubation of 20 hrs. The cell culture supernatant SEAP reporter activity was determined using QUANTI-Blue™ kit (Cat. #: rep-qb1, Invivogen, San Diego, Ca, USA) at a wavelength of 640 nm, a detection medium that turns purple or blue in the presence of alkaline phosphatase.
HEK293-Blue-hTLR7 cells were incubated at a density of 250,000˜450,000 cells/mL in a volume of 170 μL in a 96-well plate in Dulbecco's Modified Eagle's medium (DMEM) containing 4.5 g/L glucose, 50 U/mL penicillin, […], […], 2 mM L-glutamine, 10% (v/v) heat-inactivated fetal bovine serum with addition of 20 μL test compound in a serial dilution in the presence of final DMSO at 1% and 10 μL of 20 uM R848 in above DMEM, perform incubation under 37° C. in a CO2 incubator for 20 hrs. Then 20 μL of the supernatant from each well was incubated with 180 μL Quanti-blue substrate solution at 37° C. for 2 hrs and the absorbance was read at 620˜655 nm using a spectrophotometer. The signalling pathway that TLR7 activation leads to downstream NF-κB activation has been widely accepted, and therefore similar reporter assay was modified for evaluating TLR7 antagonist.
`C[C@@H]1CN(c2ccc(C#N)n3nccc23)C[C@H](CN2CC3CCCNC3C2)O1` (stereo partly drawn) [Example 45, 4-[(2S,6R)-2-(1,2,3,4,4a,5,7,7a-octahydropyrrolo[3,4-b]pyridin-6-ylmethyl)-6-methyl-morpholin-4-yl]pyrazolo[1,5-a]pyridine-7-carbonitrile] gave an IC50 of 250 nM. Molecule `C[C@@H]1CN(c2ccc(C#N)n3nccc23)C[C@H](CN2CC3(CC(N)C3)C2)O1` [Example 11, 4-[(2S,6R)-2-[(6-amino-2-azaspiro[3.3]heptan-2-yl)methyl]-6-methyl-morpholin-4-yl]pyrazolo[1,5-a]pyridine-7-carbonitrile] has an IC50 of 160 nM. For `C[C@@H]1CN(c2ccc(C#N)n3ncc(F)c23)C[C@H](CN2CCCC3(CCNCC3)C2)O1` [Example 67, 4-[(2S,6R)-2-(2,9-diazaspiro[5.5]undecan-2-ylmethyl)-6-methyl-morpholin-4-yl]-3-fluoro-pyrazolo[1,5-a]pyridine-7-carbonitrile], the IC50 was 280 nM. In the case of `C[C@@H]1CN(c2ccc(C#N)n3nccc23)C[C@H](CN2CC3CNCC3C2)O1` (stereo partly drawn) [Example 22, 4-[(2S,6R)-2-(2,3,3a,4,6,6a-hexahydro-1H-pyrrolo[3,4-c]pyrrol-5-ylmethyl)-6-methyl-morpholin-4-yl]pyrazolo[1,5-a]pyridine-7-carbonitrile], the IC50 is reported as 100 nM. Molecule `C[C@@H]1CN(c2ccc(C#N)n3nccc23)C[C@H](CN2CCCC3CNCC32)O1` (stereo partly drawn) [Example 61, 4-[(2S,6R)-2-(2,3,4,4a,5,6,7,7a-octahydropyrrolo[3,4-b]pyridin-1-ylmethyl)-6-methyl-morpholin-4-yl]pyrazolo[1,5-a]pyridine-7-carbonitrile] has an IC50 of 460 nM. Molecule `C[C@@H]1CN(c2ccc(C#N)n3nccc23)C[C@H](CN2CCC3(CCCNC3)C2)O1` (stereo partly drawn) [Example 25, 4-[(2S,6R)-2-(2,9-diazaspiro[4.5]decan-2-ylmethyl)-6-methyl-morpholin-4-yl]pyrazolo[1,5-a]pyridine-7-carbonitrile] has an IC50 of 110 nM. `C[C@@H]1CN(c2ccc(C#N)n3nccc23)C[C@H](CN2CCC(N)CC2)O1` [Example 17, 4-[(2S,6R)-2-[(4-amino-1-piperidyl)methyl]-6-methyl-morpholin-4-yl]pyrazolo[1,5-a]pyridine-7-carbonitrile] was tested, and the IC50 was 89 nM. With `C[C@@H]1CN(c2ccc(C#N)n3nccc23)C[C@H](CN2CCCC3(CCNCC3)C2)O1` [Example 32, 4-[(2S,6R)-2-(2,9-diazaspiro[5.5]undecan-2-ylmethyl)-6-methyl-morpholin-4-yl]pyrazolo[1,5-a]pyridine-7-carbonitrile] the IC50 was 410 nM. Molecule `C[C@@H]1CN(c2ccc(C#N)n3nccc23)C[C@H](CN2CC3CNCCC32)O1` (stereo partly drawn) [Example 52, 4-[(2S,6R)-2-(3,7-diazabicyclo[4.2.0]octan-7-ylmethyl)-6-methyl-morpholin-4-yl]pyrazolo[1,5-a]pyridine-7-carbonitrile] has an IC50 of 92 nM. `C[C@@H]1CN(c2ccc(C#N)n3nccc23)C[C@H](CN2CCN(C)CC2)O1` [Example 15, 4-[(2R,6S)-2-methyl-6-[(4-methylpiperazin-1-yl)methyl]morpholin-4-yl]pyrazolo[1,5-a]pyridine-7-carbonitrile] was tested, and the IC50 was 77 nM. Molecule `C[C@@H]1CN(c2ccc(C#N)n3nccc23)C[C@H](CN2C3CCCC2CC(N)C3)O1` (stereo partly drawn) [Example 65, Endo-4-[(2S,6R)-2-[(3-amino-9-azabicyclo[3.3.1]nonan-9-yl)methyl]-6-methyl-morpholin-4-yl]pyrazolo[1,5-a]pyridine-7-carbonitrile] has an IC50 of 460 nM. Molecule `C[C@@H]1CN(c2ccc(C#N)n3nccc23)C[C@H](CN2CCC(N3CCN(C)CC3)CC2)O1` [Example 1, 4-[(2R,6S)-2-methyl-6-[[4-(4-methylpiperazin-1-yl)-1-piperidyl]methyl]morpholin-4-yl]pyrazolo[1,5-a]pyridine-7-carbonitrile] has an IC50 of 95 nM. `C[C@@H]1CN(c2ccc(C#N)n3nccc23)C[C@H](CN2CCC(CN)CC2)O1` [Example 12, 4-[(2S,6R)-2-[[4-(aminomethyl)-1-piperidyl]methyl]-6-methyl-morpholin-4-yl]pyrazolo[1,5-a]pyridine-7-carbonitrile] was tested, and the IC50 was 240 nM. Molecule `C[C@@H]1CN(c2ccc(C#N)n3nccc23)C[C@H](CN2CCC(N3CCNCC3)CC2)O1` [Example 39, 4-[(2R,6S)-2-methyl-6-[(4-piperazin-1-yl-1-piperidyl)methyl]morpholin-4-yl]pyrazolo[1,5-a]pyridine-7-carbonitrile] has an IC50 of 200 nM. Molecule `C[C@@H]1CN(c2ccc(C#N)n3nccc23)C[C@H](CN2CCCC3(CCCNC3)C2)O1` (stereo partly drawn) [Example 23, 4-[(2S,6R)-2-(2,8-diazaspiro[5.5]undecan-2-ylmethyl)-6-methyl-morpholin-4-yl]pyrazolo[1,5-a]pyridine-7-carbonitrile] has an IC50 of 180 nM. `C[C@@H]1CN(c2ccc(C#N)n3nccc23)C[C@H](CN2CCC3(CCNC3)CC2)O1` [Example 19, 4-[(2S,6R)-2-(2,8-diazaspiro[4.5]decan-8-ylmethyl)-6-methyl-morpholin-4-yl]pyrazolo[1,5-a]pyridine-7-carbonitrile] was tested, and the IC50 was 130 nM. For `C[C@@H]1CN(c2ccc(C#N)n3ncc(F)c23)C[C@H](CN2CCC3(CCCNC3)C2)O1` (stereo partly drawn) [Example 69, 3-fluoro-4-[(2S,6R)-2-(2,9-diazaspiro[4.5]decan-2-ylmethyl)-6-methyl-morpholin-4-yl]pyrazolo[1,5-a]pyridine-7-carbonitrile], the IC50 was 130 nM. `C[C@@H]1CN(c2ccc(C#N)n3nccc23)C[C@H](CN2CCC3(CCNCC3)C2)O1` [Example 18, 4-[(2S,6R)-2-(2,8-diazaspiro[4.5]decan-2-ylmethyl)-6-methyl-morpholin-4-yl]pyrazolo[1,5-a]pyridine-7-carbonitrile] gave an IC50 of 200 nM. `C[C@@H]1CN(c2ccc(C#N)n3nccc23)C[C@H](CN2CCC3(CCN3)CC2)O1` [Example 48, 4-[(2S,6R)-2-(1,7-diazaspiro[3.5]nonan-7-ylmethyl)-6-methyl-morpholin-4-yl]pyrazolo[1,5-a]pyridine-7-carbonitrile] was tested, and the IC50 was 300 nM. `C[C@@H]1CN(c2ccc(C#N)n3nccc23)C[C@H](CN2CCC(CCN)CC2)O1` [Example 13, 4-[(2S,6R)-2-[[4-(2-aminoethyl)-1-piperidyl]methyl]-6-methyl-morpholin-4-yl]pyrazolo[1,5-a]pyridine-7-carbonitrile] was tested, and the IC50 was 400 nM. Work on `C[C@@H]1CN(c2ccc(C#N)n3nccc23)C[C@H](CN2CC[C@H](N)[C@H](C)C2)O1` [Example 74, 4-[(2S,6R)-2-[[(3R,4S)-4-amino-3-methyl-1-piperidyl]methyl]-6-methyl-morpholin-4-yl]pyrazolo[1,5-a]pyridine-7-carbonitrile] yielded an IC50 of 89 nM. For `C[C@@H]1CN(c2ccc(C#N)n3nccc23)C[C@H](CN2C3CCCC2CC(N)C3)O1` (stereo partly drawn) [Example 66, Exo-4-[(2S,6R)-2-[(3-amino-9-azabicyclo[3.3.1]nonan-9-yl)methyl]-6-methyl-morpholin-4-yl]pyrazolo[1,5-a]pyridine-7-carbonitrile], the IC50 was 490 nM. Work on `CC1CN(C[C@H]2CN(c3ccc(C#N)n4nccc34)C[C@@H](C)O2)CCN1` (stereo partly drawn) [Example 28, 4-[(2R,6S)-2-methyl-6-[(3-methylpiperazin-1-yl)methyl]morpholin-4-yl]pyrazolo[1,5-a]pyridine-7-carbonitrile] yielded an IC50 of 44 nM.

Reference: patent US20220112187A1, “PYRAZOLOPYRIDINE AMINE COMPOUNDS FOR THE TREATMENT OF AUTOIMMUNE DISEASE” (Hoffmann-La Roche Inc., priority 2018, published 2022)
